From ChEMBL document CHEMBL4406860, “Discovery of potent ureido tetrahydrocarbazole derivatives for cancer treatments through targeting tumor-associated macrophages” (Eur J Med Chem, 2019)
Values belong to the molecule of their own block, whether it stands above or below them. The source made the active and inactive calls. No cut-off for these calls is given here.

Key:
RAW264.7 [1] = assay: Increase in TNF-alpha production in mouse RAW264.7 cells at 50 uM incubated for 24 hrs by ELISA (reference value: 1133.56 +/- 46.61 pg/ml); assay type: functional
RAW264.7 [2] = assay: Inhibition of M2-phenotype markers expression in mouse RAW264.7 cells assessed as decrease in IL-4 -induced CD206 expression incubated for 1 hr by qRT-PCR; assay type: functional, cell-based
RAW264.7 [3] = assay: Induction of M1-phenotype markers expression in mouse RAW264.7 cells assessed as increase in IL-1beta expression incubated for 1 hr by qRT-PCR; assay type: functional, cell-based
[4] = test system: Lewis lung carcinoma cell line; assay: Antitumor activity against mouse LLC cells xenografted in C57BL/6 mouse assessed as reduction in tumor weight at 5 mg/kg, ip administered every other day for 30 days; assay type: functional, organism-based
RAW264.7 [5] = assay: Increase in TNF-alpha production in mouse RAW264.7 cells incubated for 24 hrs by ELISA; assay type: functional, cell-based; conditions: RAW264.7, 24 h
[6] = test system: Lewis lung carcinoma cell line; assay: Antitumor activity against mouse LLC cells xenografted in C57BL/6 mouse assessed as reduction in tumor weight in prescence of anti-PD1 at 5 mg/kg, ip administered every other day for 30 days; assay type: functional, organism-based
RAW264.7 [7] = assay: Induction of M1-phenotype markers expression in mouse RAW264.7 cells assessed as increase in IL-12alpha expression incubated for 1 hr by qRT-PCR; assay type: functional, cell-based
Mus musculus [8] = assay: In vivo inhibition of M2-phenotype associated marker in C57BL/6 mouse xenografted with mouse LLC cells assessed as decrease in F4/80-CD206 expression in presence of anti-PD1 at 5 mg/kg, ip administered every other day for 30 days by DAPI staining based immunofluorescence microscopic analysis; assay type: functional, organism-based
[9] = Toxicity in C57BL/6 mouse xenografted with mouse LLC cells assessed as effect on lungs at 5 mg/kg, ip administered every other day for 30 days by H and E staining based microscopic analysis; assay type: organism-based; conditions: in vivo, 720 h
Mus musculus [10] = assay: In vivo inhibition of M2-phenotype associated marker in C57BL/6 mouse xenografted with mouse LLC cells assessed as decrease in F4/80-CD206 expression at 5 mg/kg, ip administered every other day for 30 days by DAPI staining based immunofluorescence microscopic analysis; assay type: functional, organism-based
RAW264.7 [11] = assay: Induction of M1-phenotype markers expression in mouse RAW264.7 cells assessed as increase in TNFalpha expression incubated for 1 hr by qRT-PCR; assay type: functional, cell-based
[12] = test system: Lewis lung carcinoma cell line; assay: Antitumor activity against mouse LLC cells xenografted in C57BL/6 mouse assessed as reduction in tumor volume at 5 mg/kg, ip administered every other day for 30 days; assay type: functional, organism-based
[13] = Increase in TNF-alpha production in mouse BMDM cells incubated for 24 hrs by ELISA; assay type: functional, cell-based
[14] = Toxicity in C57BL/6 mouse xenografted with mouse LLC cells assessed as effect on body weight in prescence of anti-PD1 (1 mg/kg) at 5 mg/kg, ip administered every other day for 30 days; assay type: organism-based; conditions: in vivo, 720 h
[15] = Toxicity in C57BL/6 mouse xenografted with mouse LLC cells assessed as effect on liver at 5 mg/kg, ip administered every other day for 30 days by H and E staining based microscopic analysis; assay type: organism-based; conditions: in vivo, 720 h
[16] = Toxicity in C57BL/6 mouse xenografted with mouse LLC cells assessed as effect on body weight at 5 mg/kg, ip administered every other day for 30 days; assay type: organism-based; conditions: in vivo, 720 h
RAW264.7 [17] = assay: Inhibition of M2-phenotype markers expression in mouse RAW264.7 cells assessed as decrease in IL-4 -induced in Ym-1R expression incubated for 1 hr by qRT-PCR; assay type: functional, cell-based
[18] = test system: Lewis lung carcinoma cell line; assay: Antitumor activity against mouse LLC cells xenografted in C57BL/6 mouse assessed as reduction in tumor volume in prescence of anti-PD1 at 5 mg/kg, ip administered every other day for 30 days; assay type: functional, organism-based
RAW264.7 [19] = assay: Inhibition of M2-phenotype associated markers in mouse RAW264.7 cells assessed as F4/80-CD206 expression in presence of IL4 incubated for 24 hrs by flow cytometry (reference value: 7.54 %); assay type: functional
RAW264.7 [20] = assay: Induction of M1-phenotype associated markers in mouse RAW264.7 cells assessed as F4/80-MHC II expression incubated for 24 hrs by flow cytometry (reference value: 12.1 %); assay type: functional
RAW264.7 [21] = assay: Inhibition of M2-phenotype markers expression in mouse RAW264.7 cells assessed as decrease in IL-4 -induced in Fizz-1 expression incubated for 1 hr by qRT-PCR; assay type: functional, cell-based
Mus musculus [22] = assay: In vivo induction of M1-phenotype associated marker in C57BL/6 mouse xenografted with mouse LLC cells assessed as increase in F4/80-iNOS expression at 5 mg/kg, ip administered every other day for 30 days by DAPI staining based immunofluorescence microscopic analysis; assay type: functional, organism-based
RAW264.7 [23] = assay: Inhibition of M2-phenotype markers expression in mouse RAW264.7 cells assessed as decrease in IL-4 -induced in Arg-1 expression incubated for 1 hr by qRT-PCR; assay type: functional, cell-based
Mus musculus [24] = assay: In vivo induction of M1-phenotype associated marker in C57BL/6 mouse xenografted with mouse LLC cells assessed as increase in F4/80-iNOS expression in presence of anti-PD1 at 5 mg/kg, ip administered every other day for 30 days by DAPI staining based immunofluorescence microscopic analysis; assay type: functional, organism-based
RAW264.7 [25] = assay: Cytotoxicity against mouse RAW264.7 cells assessed as reduction in cell viability at 1000 uM incubated for 24 hrs by CCK-8 assay; assay type: cell-based; conditions: raw264.7, 24 h
RAW264.7 [26] = assay: Induction of M1-phenotype markers expression in mouse RAW264.7 cells assessed as increase in iNOS expression incubated for 1 hr by qRT-PCR; assay type: functional, cell-based

SMILES: O=C(Nc1ccc(Cl)c(C(F)(F)F)c1)NC1CCc2[nH]c3cc(C(=O)N4CCOCC4)ccc3c2C1 (configuration not stated)
Activity (RAW264.7 [1]): 6085.83 pg/mL

EC50 (RAW264.7 [5]): 17.2 µM | EC50 [13]: 18.9 µM
SMILES: Cn1cc(-c2cccc3[nH]c4c(c23)CC(NC(=O)Nc2ccc(Cl)c(C(F)(F)F)c2)CC4)cn1 (configuration not stated)
inhibition (RAW264.7 [2]): Dose-dependent effect | Activity (RAW264.7 [3]): Dose-dependent effect | Activity [4]: Active | Activity [6]: Active | Activity (RAW264.7 [7]): Dose-dependent effect | Activity (Mus musculus [8]): Active | Activity [9]: Non-Toxic | Activity (Mus musculus [10]): Active | Activity (RAW264.7 [11]): Dose-dependent effect | Activity [12]: Active | Activity [14]: Non-Toxic | Activity [15]: Non-Toxic | Activity (RAW264.7 [1]): 5994.12 pg/mL | Activity [16]: Non-Toxic | inhibition (RAW264.7 [17]): Dose-dependent effect | Activity [18]: Active | inhibition (INH) (RAW264.7 [19]): 8.76% | Activity (RAW264.7 [20]): 24.4% | inhibition (RAW264.7 [21]): Dose-dependent effect | Activity (Mus musculus [22]): Active | inhibition (RAW264.7 [23]): Dose-dependent effect | Activity (Mus musculus [24]): Active | Activity (RAW264.7 [25]): Non-Toxic | Activity (RAW264.7 [26]): Dose-dependent effect

SMILES: O=C(Nc1ccc(Cl)c(C(F)(F)F)c1)NC1CCc2[nH]c3cc(C(=O)NCCCO)ccc3c2C1 (configuration not stated)
Activity (RAW264.7 [1]): 5030.39 pg/mL

SMILES: O=C(Nc1ccc(Cl)c(C(F)(F)F)c1)NC1CCc2[nH]c3c(C(=O)N4CCOCC4)cccc3c2C1 (configuration not stated)
Activity (RAW264.7 [1]): 4127.15 pg/mL

SMILES: O=C(Nc1ccc(Cl)c(C(F)(F)F)c1)NC1CCc2[nH]c3ccc(C(=O)N4CCOCC4)cc3c2C1 (configuration not stated)
Activity (RAW264.7 [1]): 5510.03 pg/mL

SMILES: CN1CCN(C(=O)c2cccc3c4c([nH]c23)CCC(NC(=O)Nc2ccc(Cl)c(C(F)(F)F)c2)C4)CC1 (configuration not stated)
Activity (RAW264.7 [1]): 2506.98 pg/mL

SMILES: O=C(Nc1ccc(Cl)c(C(F)(F)F)c1)NC1CCc2[nH]c3cccc(C(=O)NCCOCCO)c3c2C1 (configuration not stated)
Activity (RAW264.7 [1]): 500.62 pg/mL

SMILES: O=C(Nc1ccc(Cl)c(C(F)(F)F)c1)NC1CCc2[nH]c3c(C(=O)NCCOCCO)cccc3c2C1 (configuration not stated)
Activity (RAW264.7 [1]): 3364.65 pg/mL

SMILES: CN1CCN(C(=O)c2cccc3[nH]c4c(c23)CC(NC(=O)Nc2ccc(Cl)c(C(F)(F)F)c2)CC4)CC1 (configuration not stated)
Activity (RAW264.7 [1]): 3714.66 pg/mL

SMILES: O=C(Nc1ccc(Cl)c(C(F)(F)F)c1)NC1CCc2[nH]c3cccc(C(=O)N4CCOCC4)c3c2C1 (configuration not stated)
Activity (RAW264.7 [1]): 4025.54 pg/mL

SMILES: CN1CCN(C(=O)c2ccc3[nH]c4c(c3c2)CC(NC(=O)Nc2ccc(Cl)c(C(F)(F)F)c2)CC4)CC1 (configuration not stated)
Activity (RAW264.7 [1]): 4935.9 pg/mL

SMILES: O=C(Nc1ccc(Cl)c(C(F)(F)F)c1)NC1CCc2[nH]c3cc(-c4cnn(CCO)c4)ccc3c2C1 (configuration not stated)
Activity (RAW264.7 [1]): 6043.84 pg/mL

SMILES: CN1CCN(C(=O)c2ccc3c4c([nH]c3c2)CCC(NC(=O)Nc2ccc(Cl)c(C(F)(F)F)c2)C4)CC1 (configuration not stated)
Activity (RAW264.7 [1]): 6552.76 pg/mL

SMILES: CC(C)NC(=O)c1ccc2c3c([nH]c2c1)CCC(NC(=O)Nc1ccc(Cl)c(C(F)(F)F)c1)C3 (configuration not stated)
Activity (RAW264.7 [1]): 5566.34 pg/mL

SMILES: O=C(Nc1ccc(Cl)c(C(F)(F)F)c1)NC1CCc2[nH]c3ccc(C(=O)NC4CC4)cc3c2C1 (configuration not stated)
Activity (RAW264.7 [1]): 4458.11 pg/mL

EC50 (RAW264.7 [5]): 18.4 µM | EC50 [13]: 63.5 µM
SMILES: O=C(Nc1ccc(Cl)c(C(F)(F)F)c1)NC1CCc2[nH]c3c(C(=O)NC4CC4)cccc3c2C1 (configuration not stated)
Activity (RAW264.7 [1]): 7730.01 pg/mL

SMILES: O=C(Nc1ccc(Cl)c(C(F)(F)F)c1)NC1CCc2[nH]c3ccc(C(=O)NCCOCCO)cc3c2C1 (configuration not stated)
Activity (RAW264.7 [1]): 561.78 pg/mL

SMILES: Cn1cc(-c2ccc3c4c([nH]c3c2)CCC(NC(=O)Nc2ccc(Cl)c(C(F)(F)F)c2)C4)cn1 (configuration not stated)
Activity (RAW264.7 [1]): 3770.66 pg/mL

SMILES: O=C(Nc1ccc(Cl)c(C(F)(F)F)c1)NC1CCc2[nH]c3cc(C(=O)NCCO)ccc3c2C1 (configuration not stated)
Activity (RAW264.7 [1]): 4377.67 pg/mL

SMILES: O=C(Nc1ccc(Cl)c(C(F)(F)F)c1)NC1CCc2[nH]c3cc(C(=O)NCCOCCO)ccc3c2C1 (configuration not stated)
Activity (RAW264.7 [1]): 6968.79 pg/mL

SMILES: O=C(Nc1ccc(Cl)c(C(F)(F)F)c1)NC1CCc2[nH]c3cc(C(=O)NC4CC4)ccc3c2C1 (configuration not stated)
Activity (RAW264.7 [1]): 6034.58 pg/mL

EC50 (RAW264.7 [5]): 13.4 µM | EC50 [13]: 20.9 µM
SMILES: O=C(Nc1ccc(Cl)c(C(F)(F)F)c1)NC1CCc2[nH]c3cccc(-c4cnn(CCO)c4)c3c2C1 (configuration not stated)
Activity (RAW264.7 [1]): 6714.86 pg/mL

SMILES: O=C(Nc1ccc(Cl)c(C(F)(F)F)c1)NC1CCc2[nH]c3cccc(C(=O)NC4CC4)c3c2C1 (configuration not stated)
Activity (RAW264.7 [1]): 6427.32 pg/mL
